{
  "source": "patent US20230248741A1",
  "about": "“Compositions and Methods for Lowering Triglycerides in a Subject with Reduced Kidney Function and Diabetes Mellitus” (Amarin Pharmaceuticals Ireland Limited, priority 2018, published 2023)",
  "key": {"[1]": {"tested_on": "patients with fasting TG ≥200 and <500 mg/dl despite statin therapy", "assay": "ANCHOR study, entire population: fasting TG", "format": "in vivo, human", "settings": "4 g/day", "method": "A multi-center, placebo-controlled, randomized, double-blind, 12-week study is performed to evaluate the efficacy and safety of >96% E-EPA in patients with fasting triglyceride levels ≥200 mg/dl and <500 mg/dl despite statin therapy (the mean of two qualifying entry values needs to be ≥185 mg/dl and at least one of the values needs to be ≥200 mg/dl). The primary objective of the study is to determine the efficacy of >96% E-EPA 2 g daily and 4 g daily, compared to placebo, in lowering fasting TG levels in patients with high risk for cardiovascular disease and with fasting TG levels ≥200 mg/dL and <500 mg/dL, despite treatment to LDL-C goal on statin therapy.\nThe primary efficacy variable for the double-blind treatment period is percent change in TG from baseline to Week 12 endpoint. […]"}, "[2]": {"tested_on": "patients with eGFR <90 mL/min/1.73 m^2 for ≥3 months and hsCRP ≥2.0 mg/L", "assay": "ANCHOR post-hoc (eGFR <90, hsCRP ≥2.0 mg/L): renal parameters", "format": "in vivo, human", "settings": "4 g/day", "method": "CVD-related (e.g., atherogenic) parameters were analyzed in a post-hoc study of 152 patients from the multi-center, placebo-controlled, randomized double-blind, 12-week study described in Example 1. These 152 patients have reduced kidney reduced function (e.g., eGFR<90 mL/min/1.73 m^2 for ≥3 months) and hsCRP≥2.0 mg/L."}},
  "data": [
    {"smiles": "CC/C=C\\C/C=C\\C/C=C\\C/C=C\\C/C=C\\CCCC(=O)OCC", "note": "[E-EPA, ethyl eicosapentaenoate]", "values": [
      {"measurement": "median TGs reduction from baseline", "setting": "[1]", "value": "−21.5", "unit": "%"},
      {"measurement": "serum creatinine after 12 weeks", "setting": "[2]; before 0.9 mg/dL, no change", "value": 0.9, "unit": "mg/dL"},
      {"measurement": "albumin after 12 weeks", "setting": "[2]; before 4.5 g/dL, no statistically significant change", "value": 4.4, "unit": "g/dL"},
      {"measurement": "eGFR after 12 weeks", "setting": "[2]; increase from 72.4", "value": 78.5, "unit": "mL/min/1.73 m^2"}
    ]}
  ]
}
